Reference: article PMC9858543, “Design, synthesis and evaluation of 2, 6, 8-substituted Imidazopyridine derivatives as potent PI3Kα inhibitors” (Journal of Enzyme Inhibition and Medicinal Chemistry, 2023)
Like-named read-outs stand apart in the source and are kept apart here.

Biological target: T1, PI3Kα (Homo sapiens, UniProt P42336)
T1 construct: purchased Invitrogen
Assay: In vitro PI3Kα enzymatic assay (ADP-Glo / Kinase-Glo, ATP 25 μM)
Format: biochemical
Details: mean ± SD of three determinations
Experimental: To screen the inhibitory activity of the target compounds against PI3Kα, the Kinase-Glo™ assay with ATP at 25 μM was utilised with PIK-75 as positive control. We chose to explore the SARs at three positions on the Imidazo[1,2-a]pyridine core. To start with, a set of 8-position modifications were prepared while keeping the morpholinyl amide substituent on 2-position fixed, since it allowed quick structure − activity profiling via coupling reactions of bromide with aryl borates or boronic acids. […] We then turned our attention back to the phenyl substituents.
Briefly, the compound, PI3K enzyme (PI3Kα from Invitrogen), the PIP2 (Life Technologies) substrate, and ATP (25 μM, Sigma) were diluted in kinase buffer to the indicated concentrations. The assay plate was covered and incubated at room temperature for 1 h. Then, the Kinase-Glo reagent (Promega) was added to the PI3Kα plate to stop the reaction, mixed briefly with centrifuge, shaken slowly on the shaker and then equilibrate for 120 min. Finally, add Kinase detection reagent to each well, shake 1 min, equilibrate for 30 min before reading on a plate reader for luminescence. The data were collected on Envision and presented in Excel. IC50 values were calculated from the inhibition curves.

[1] = PI3Kα, compound 10 μM, ATP 25 μM, read-out: % Inhibition at 10 μM
[2] = PI3Kα, compound 10 μM, ATP 25 μM

T1 sequence (P42336 whole entry): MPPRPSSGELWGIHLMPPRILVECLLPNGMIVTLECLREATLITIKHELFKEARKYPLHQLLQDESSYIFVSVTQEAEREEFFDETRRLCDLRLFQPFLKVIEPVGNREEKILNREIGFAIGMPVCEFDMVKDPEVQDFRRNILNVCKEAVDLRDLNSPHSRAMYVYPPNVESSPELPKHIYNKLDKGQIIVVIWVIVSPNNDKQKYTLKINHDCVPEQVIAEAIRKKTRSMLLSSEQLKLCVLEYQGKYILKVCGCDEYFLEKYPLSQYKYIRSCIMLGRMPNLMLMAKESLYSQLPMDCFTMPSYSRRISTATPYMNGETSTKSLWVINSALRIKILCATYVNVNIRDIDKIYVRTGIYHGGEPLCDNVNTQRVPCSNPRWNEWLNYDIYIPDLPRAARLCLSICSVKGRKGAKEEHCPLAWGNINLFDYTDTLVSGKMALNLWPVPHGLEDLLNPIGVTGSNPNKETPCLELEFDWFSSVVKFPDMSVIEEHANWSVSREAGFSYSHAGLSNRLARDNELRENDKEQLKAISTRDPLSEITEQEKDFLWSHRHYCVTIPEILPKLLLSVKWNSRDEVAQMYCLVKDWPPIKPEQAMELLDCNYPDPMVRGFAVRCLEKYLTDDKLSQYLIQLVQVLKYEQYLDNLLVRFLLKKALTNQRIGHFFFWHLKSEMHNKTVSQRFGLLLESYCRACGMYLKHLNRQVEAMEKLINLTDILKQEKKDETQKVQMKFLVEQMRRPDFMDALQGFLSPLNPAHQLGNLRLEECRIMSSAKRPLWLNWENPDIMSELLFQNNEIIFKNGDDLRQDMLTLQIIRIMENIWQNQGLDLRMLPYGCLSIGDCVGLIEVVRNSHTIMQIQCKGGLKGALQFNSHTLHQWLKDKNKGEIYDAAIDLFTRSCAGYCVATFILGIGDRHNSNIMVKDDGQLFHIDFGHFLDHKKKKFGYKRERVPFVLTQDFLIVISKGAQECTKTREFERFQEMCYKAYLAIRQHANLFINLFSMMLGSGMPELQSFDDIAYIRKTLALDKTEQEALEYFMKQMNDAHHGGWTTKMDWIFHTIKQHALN
T1 sequence (P27986 whole entry partner): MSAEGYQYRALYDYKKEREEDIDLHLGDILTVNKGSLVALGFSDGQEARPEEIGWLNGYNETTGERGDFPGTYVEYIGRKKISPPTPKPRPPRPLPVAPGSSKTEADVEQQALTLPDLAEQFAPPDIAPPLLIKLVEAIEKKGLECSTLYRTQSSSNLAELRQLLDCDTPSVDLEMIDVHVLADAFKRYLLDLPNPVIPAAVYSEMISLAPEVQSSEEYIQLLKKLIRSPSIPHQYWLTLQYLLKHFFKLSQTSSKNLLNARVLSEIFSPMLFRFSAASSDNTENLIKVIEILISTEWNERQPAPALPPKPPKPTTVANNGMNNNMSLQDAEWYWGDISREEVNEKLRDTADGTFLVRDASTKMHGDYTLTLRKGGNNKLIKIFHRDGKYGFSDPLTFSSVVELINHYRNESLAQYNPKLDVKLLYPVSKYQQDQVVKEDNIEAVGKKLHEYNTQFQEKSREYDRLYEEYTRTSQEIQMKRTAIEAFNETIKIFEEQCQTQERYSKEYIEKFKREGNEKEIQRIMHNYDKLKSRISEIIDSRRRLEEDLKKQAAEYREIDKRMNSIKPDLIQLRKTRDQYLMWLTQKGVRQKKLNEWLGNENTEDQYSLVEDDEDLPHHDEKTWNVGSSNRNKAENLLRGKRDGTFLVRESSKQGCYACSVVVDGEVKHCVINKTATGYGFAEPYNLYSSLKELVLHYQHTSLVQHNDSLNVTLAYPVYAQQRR

Molecule | inhibition at 10 µM [1] [%] | also measured
COc1ncc(-c2cc(C)cn3cc(C(=O)NCCN4CCOCC4)nc23)cc1NS(=O)(=O)c1ccc(F)cc1F [Compound 38, 8–(5-((2,4-Difluorophenyl)sulfonamido)-6-methoxypyridin-3-yl)-6-methyl-N-(2-morpholinoethyl)Imidazo[1,2-a]pyridine-2-carboxamide] | 81.6 ± 2.8 | 
Cc1ccc([N+](=O)[O-])cc1S(=O)(=O)N(C)/N=C/c1cnc2ccc(Br)cn12 [PIK-75, reference compound] |  | inhibition at 10 µM (read-out: % Inhibition at 10 μM, PI3Kα, compound 10 μM, ATP 25 μM): 98.2 ± 1.6%
Cc1cc(-c2ccncc2)c2nc(C(=O)N3CCC(C)CC3)cn2c1 [Compound 30, (6-Methyl-8-(pyridin-4-yl)Imidazo[1,2-a]pyridin-2-yl)(4-methylpiperidin-1-yl)methanone] | 9.3 ± 1.7 | 
COc1ncc(-c2cccn3cc(C(=O)N4CCC(C)CC4)nc23)cc1NS(=O)(=O)c1ccc(F)cc1 [Compound 46, 4-Fluoro-N-(2-methoxy-5–(2-(4-methylpiperidine-1-carbonyl)Imidazo[1,2-a]pyridin-8-yl)pyridin-3-yl)benzenesulfonamide] | 40.2 ± 3 | 
COc1ncc(-c2cc(C)cn3cc(C(=O)NCCCN4CCOCC4)nc23)cc1NS(=O)(=O)c1ccc(F)cc1 [Compound 41, 8–(5-((4-Fluorophenyl)sulfonamido)-6-methoxypyridin-3-yl)-6-methyl-N-(3-morpholinopropyl)Imidazo[1,2-a]pyridine-2-carboxamide] | 75.7 ± 2.9 | 
COc1ccc(-c2cc(C)cn3cc(C(=O)N4CCOCC4)nc23)cn1 [Compound 21, (8–(6-Methoxypyridin-3-yl)-6-methylImidazo[1,2-a]pyridin-2-yl)(morpholino)methanone] | 39.9 ± 3 | 
Cc1cc(-c2cccnc2)c2nc(C(=O)N3CCCC3)cn2c1 [Compound 24, (6-Methyl-8-(pyridin-3-yl)Imidazo[1,2-a]pyridin-2-yl)(pyrrolidin-1-yl)methanone] | 29.6 ± 2.1 | 
COc1ncc(-c2cc(C)cn3cc(C(=O)N4CCOCC4)nc23)cc1NS(=O)(=O)c1ccc(F)cc1 [Compound 42, 4-Fluoro-N-(2-methoxy-5–(6-methyl-2-(morpholine-4-carbonyl)Imidazo[1,2-a]pyridin-8-yl)pyridin-3-yl)benzenesulfonamide] | 69.2 ± 6.4 | 
Cc1cc(-c2cccc(F)c2)c2nc(C(=O)N3CCC(C)CC3)cn2c1 [Compound 29, (8–(3-Fluorophenyl)-6-methylImidazo[1,2-a]pyridin-2-yl)(4-methylpiperidin-1-yl)methanone] | 30.4 ± 3.1 | 
COc1ccc(-c2cc(C)cn3cc(C(=O)N4CCCC4)nc23)cn1 [Compound 25, (8–(6-Methoxypyridin-3-yl)-6-methylImidazo[1,2-a]pyridin-2-yl)(pyrrolidin-1-yl)methanone] | 44.3 ± 1.5 | 
Cc1cc(-c2cccnc2)c2nc(C(=O)N3CCC(C)CC3)cn2c1 [Compound 31, (6-Methyl-8-(pyridin-3-yl)Imidazo[1,2-a]pyridin-2-yl)(4-methylpiperidin-1-yl)methanone] | 28.5 ± 1.6 | 
COc1ncc(-c2cc(C)cn3cc(C(=O)N4CCCC4)nc23)cc1NS(=O)(=O)c1ccccc1 [Compound 34, N-(2-methoxy-5–(6-methyl-2-(pyrrolidine-1-carbonyl)Imidazo[1,2-a]pyridin-8-yl)pyridin-3-yl)benzenesulfonamide] | 49.8 ± 1.6 | 
Cc1cc(-c2cccc(F)c2)c2nc(C(=O)N3CCOCC3)cn2c1 [Compound 16, (8–(3-Fluorophenyl)-6-methylImidazo[1,2-a]pyridin-2-yl)(morpholino)methanone] | 38.2 ± 3.6 | 
N,N-Diethyl-3–(6-methyl-2-(morpholine-4-carbonyl)Imidazo[1,2-a]pyridin-8-yl)benzenesulfonamide [Compound 19] |  | % Inhibition at 10 μM [2]: 58.5 ± 1.6%
Cc1cc(-c2ccccc2F)c2nc(C(=O)N3CCOCC3)cn2c1 [Compound 17, (8–(2-Fluorophenyl)-6-methylImidazo[1,2-a]pyridin-2-yl)(morpholino)methanone] | 14.1 ± 2.7 | 
CCN(CC)S(=O)(=O)c1cccc(-c2cc(C)cn3cc(C(=O)N4CCCC4)nc23)c1 [Compound 28, N,N-Diethyl-3–(6-methyl-2-(pyrrolidine-1-carbonyl)Imidazo[1,2-a]pyridin-8-yl)benzenesulfonamide] | 66.1 ± 4.4 | 
Cc1cc(-c2ccc(F)cc2)c2nc(C(=O)N3CCCC3)cn2c1 [Compound 22, (8–(4-Fluorophenyl)-6-methylImidazo[1,2-a]pyridin-2-yl)(pyrrolidin-1-yl)methanone] | 33.3 ± 4.2 | 
Cc1cc(-c2ccc(NC(=O)c3cccc(F)c3)cc2)c2nc(C(=O)N3CCCC3)cn2c1 [Compound 26, 3-Fluoro-N-(4–(6-methyl-2-(pyrrolidine-1-carbonyl)Imidazo[1,2-a]pyridin-8-yl)phenyl)benzamide] | 57.9 ± 4.6 | 
1-Cyclohexyl-3–(3-(6-methyl-2–(4-methylpiperidine-1-carbonyl)Imidazo[1,2-a]pyridin-8-yl)phenyl)urea [Compound 33] |  | % Inhibition at 10 μM [2]: 44.5 ± 1.2%
COc1ncc(-c2cc(C)cn3cc(C(=O)N4CCOCC4)nc23)cc1NS(=O)(=O)c1ccc(F)cc1F [Compound 37, 2,4-Difluoro-N-(2-methoxy-5–(6-methyl-2-(morpholine-4-carbonyl)Imidazo[1,2-a]pyridin-8-yl)pyridin-3-yl)benzenesulfonamide] | 67.5 ± 0.3 | 
N,N-Diethyl-3–(6-methyl-2–(4-methylpiperidine-1-carbonyl)Imidazo[1,2-a]pyridin-8-yl)benzenesulfonamide [Compound 32] |  | % Inhibition at 10 μM [2]: 50.6 ± 0.9%
COc1ncc(-c2cc(C)cn3cc(C(=O)N4CCN(C)CC4)nc23)cc1NS(=O)(=O)c1ccc(F)cc1 [Compound 44, 4-Fluoro-N-(2-methoxy-5–(6-methyl-2–(4-methylpiperazine-1-carbonyl)Imidazo[1,2-a]pyridin-8-yl)pyridin-3-yl)benzenesulfonamide] | 53.4 ± 5.1 | 
Cc1cc(-c2cccc(F)c2)c2nc(C(=O)N3CCCC3)cn2c1 [Compound 23, (8–(3-Fluorophenyl)-6-methylImidazo[1,2-a]pyridin-2-yl)(pyrrolidin-1-yl)methanone] | 43.9 ± 1.8 | 
COc1ncc(-c2cc(C)cn3cc(C(=O)N4CCC(C)CC4)nc23)cc1NS(=O)(=O)c1ccc(F)cc1 [Compound 43, 4-Fluoro-N-(2-methoxy-5–(6-methyl-2–(4-methylpiperidine-1-carbonyl)Imidazo[1,2-a]pyridin-8-yl)pyridin-3-yl)benzenesulfonamide] | 62.8 ± 4.6 | 
Cc1cc(-c2ccc(F)cc2)c2nc(C(=O)N3CCOCC3)cn2c1 [Compound 15, (8–(4-Fluorophenyl)-6-methylImidazo[1,2-a]pyridine-2-yl)(morpholino)methanone] | 31.9 ± 2.9 | 
(6-Methyl-8–(3-(morpholinosulfonyl)phenyl)Imidazo[1,2-a]pyridin-2-yl)(pyrrolidin-1-yl)methanone [Compound 27] |  | % Inhibition at 10 μM [2]: 60.9 ± 6.0%
Cc1cc(-c2cccnc2)c2nc(C(=O)N3CCOCC3)cn2c1 [Compound 20, (6-Methyl-8-(pyridin-3-yl)Imidazo[1,2-a]pyridin-2-yl)(morpholino)methanone] | 30.2 ± 2.1 | 
COc1ncc(-c2cc(C)cn3cc(C(=O)NCCCN4CCOCC4)nc23)cc1NS(=O)(=O)c1ccc(F)cc1F [Compound 39, 8–(5-((2,4-Difluorophenyl)sulfonamido)-6-methoxypyridin-3-yl)-6-methyl-N-(3-morpholinopropyl)Imidazo[1,2-a]pyridine-2-carboxamide] | 70.2 ± 3.6 | 
Cc1cc(-c2ccc(NC(=O)c3cccc(F)c3)cc2)c2nc(C(=O)N3CCOCC3)cn2c1 [Compound 18, 3-Fluoro-N-(4–(6-methyl-2-(morpholine-4-carbonyl)Imidazo[1,2-a]pyridin-8-yl)phenyl)benzamide] | 47.6 ± 3.9 | 
COc1ncc(-c2cc(Cl)cn3cc(C(=O)NCCCN4CCOCC4)nc23)cc1NS(=O)(=O)c1ccc(F)cc1F [Compound 45, 6-Chloro-8–(5-((2,4-difluorophenyl)sulfonamido)-6-methoxypyridin-3-yl)-N-(3-morpholinopropyl)Imidazo[1,2-a]pyridine-2-carboxamide] | 59.8 ± 3.5 | 
